Assay results as given in patent US20250255981A1, “IMMUNOMODULATORY ANTIBODY-DRUG CONJUGATES” (Seagen Inc., priority 2022, published 2025).

Experiments:
CT26 cancer cells = assay: In vivo anti-tumor activity, CT26 tumor model; design: species or system mouse; conditions: CT26, q7dx3
Procedure: CT26 cancer cells (ATCC) were cultured in RPMI 1640 modified with 1 mM Sodium Pyruvate, 10 mM HEPES, 2.8 mL 45% Glucose (1.25 g) and supplemented with 10% fetal bovine serum and 1% Pen/Strep/Glutamine. CT26 cancer cells were implanted (0.5*10^6 cells in 200 uL serum-free RPMI 1640) subcutaneously into Balb/c mice.

Renca tumor-bearing mice = assay: In vivo cytokine assay, Renca tumor-bearing mice; design: species or system mouse; RANTES in plasma / TNFa in plasma: unit not given here; conditions: for IFNγ in plasma / IL1β in plasma / IL12p70 in plasma / IL-6 in plasma / IL-10 in plasma / IP10 in plasma / MCP-1 in plasma / MIP1α in plasma / MIP1β in plasma / RANTES in plasma / TNFa in plasma: 1.48 mg/kg
Procedure: Cytokines were measured in mouse plasma harvested at 3, 6, 24, or 48 hours after treatment with compounds or ADCs using a Milliplex MAP mouse cytokine/chemokine magnetic bead panel assay kit (MCYTOMAG-70k custom 11-plex kit: MCP1, MIP1a, MIP1(3, TNFα, IFNγ, IL-10, IL-12p70, IL-6, IL-1β, IP10, RANTES) and analyzed using a Luminex™ MAGPIX™ Instrument System. Values that were outside of the standard curve range (<3.2 or […]) were either excluded from calculation of the mean values or, when indicated, converted to […] for calculation of the mean values.
Renca cancer cells (ATCC) were cultured in RPMI-1640 (ATCC) with 10% heat-inactivated fetal bovine serum, Pen-Strep (100 U/mL-100 μg/mL), MEM non-essential amino acids (1×), sodium pyruvate (1 mM), and L-glutamine (2 mM). Renca cancer cells were implanted (2*10^6 cells in 200 μL 25% Matrigel) subcutaneously into Balb/c female mice. In some experiments, Renca tumor cells were engineered to express the indicated murine or human target antigen.
(§1) When tumor volumes reached 100 mm^3, the mice were dosed with either compounds or ADCs by intraperitoneal or intravenous injection at the indicated dosing schedule and tumor volumes were monitored twice weekly. Compounds were formulated in 40% PEG400 in saline.
(§2) A syngeneic system was used to assess the ability of the STING agonist ADCs to induce immune responses in vivo and drive an anti-tumor immune response. The Renca system is a subcutaneous, mouse renal adenocarcinoma model. Female Balb/c mice were implanted with 2×10^6 Renca cells subcutaneously in the flank on day 0. When mean tumor size of 100 mm^3 (measured by using the formula Volume (mm^3)=0.5*Length*Width^2 where length is the longer dimension) was reached mice were randomized into treatment groups of ≥5 mice per group. Animals were then treated intraperitoneally (ADCs or compounds) or intravenously (compounds) with the indicated treatment every 7 days, for 3 doses total (or as indicated). Tumor length and width and the weight of the animals was measured throughout the study and tumor volume was calculated using the formula above. Animals were followed until the tumor volume reached ˜1000 mm^3; animals were then euthanized.

[1] = system: THP1-Dual™ cells (IRF-Lucia luciferase reporter); assay: THP1-Dual™ cell reporter assay; assay type: cell-based, human
Outline: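 THP1-Dual cells (~100,000 per well) exposed to compound or ADC in supplemented RPMI-1640 with 10% FBS; supernatant taken at 24 h for compounds or 48 h for ADCs. Secreted IRF-driven Lucia luciferase measured by luminescence with QUANTI-Luc reagent.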

Renca cancer cells = assay: In vivo anti-tumor activity, Renca tumor model
Procedure: In some experiments, Renca tumor cells were engineered to express the indicated murine or human target antigen.
as §1, §2

[2] = system: wild type (WT) murine bone marrow-derived macrophages; assay: Bone marrow-derived macrophage assay, wild type; assay type: cell-based, mouse; conditions: 24 hours
Procedure: Potency of the compounds described herein was evaluated using mouse bone-marrow derived macrophages cultured from wild type (C57BL/6J, the Jackson Laboratory #000664) or STING-deficient (C57BL/6J-Sting1^gt/J, the Jackson Laboratory #017537) mice. Briefly, mouse bone marrow cells were cultured for 7-10 days in RPMI-1640 (Gibco) with 10% heat-inactivated fetal bovine serum, Pen-Strep (100 U/mL-100 […], Gibco), HEPES (10 mM, Gibco), sodium pyruvate (1 mM, Gibco), GlutaMAX (1×, Gibco), beta-mercaptoethanol ([…], Gibco) and 20-40 ng/mL murine M-CSF (Peprotech, #315-02). Cells were plated in a 96-well flat bottom tissue culture-treated clear polystyrene plate (Corning Costar #3596) at ˜100,000 cells per well in 200 μL with the indicated concentration of the compound. The supernatant was harvested at 24 hours and cytokines were measured using a Milliplex MAP mouse cytokine/chemokine magnetic bead panel assay kit (MCYTOMAG-70k custom 11-plex kit: MCP1, MIP1α, MIP1β, TNFα, IFNγ, IL-10, IL-12p70, IL-1β, IL-6, IP10, RANTES) and analyzed using a Luminex™ MAGPIX™ Instrument System.

MOLM-13 = assay: Cancer cell direct cytotoxicity assay, MOLM-13; assay type: cell-based, human; conditions: 96 hours, read-out: Compound X50
Procedure: (§3) Cancer cells were counted and plated in 40 μL complete growth media in 384-well, white-walled tissue culture treated plates (Corning). Cell plates were incubated at 37° C. and with 5% CO2 overnight to allow the cells to equilibrate. Stock solutions containing ADCs or free drugs were serially diluted in RPMI-1640+20% fetal bovine serum (FBS). 10 μL of each concentration were then added to each cell plate in duplicate. Cells were then incubated at 37° C. and with 5% CO2 for 96 hours, upon which, the cell plates were removed from the incubator and allowed to cool to room temperature for 30 minutes prior to analysis. CellTiter-Glo® luminescent assay reagent (Promega Corporation, Madison, WI) was prepared according to Promega's protocol. 10 μL of CellTiter-Glo® were added to assay plates using a Formulatrix Tempest liquid handler (Formulatrix) and the plates were protected from light for 30 minutes at room temperature. The luminescence of the samples was measured using an EnVision Multimode plate reader (Perkin Elmer, Waltham, MA). Raw data were analyzed in Graphpad Prism (San Diego, CA) using a nonlinear, 4-parameter curve fit model [Y=Bottom+(Top-Bottom)/(1+10^((Log EC50−X)*HillSlope))]. Results are reported as X50 values, which are defined as the concentration of ADC or free drug required to reduce cell viability to 50%.

Karpas299 = assay: Cancer cell direct cytotoxicity assay, Karpas299; assay type: cell-based, human; conditions: 96 hours, read-out: Compound X50
Procedure: as §3

MDAMB231 = assay: Cancer cell direct cytotoxicity assay, MDAMB231; assay type: cell-based, human; conditions: 96 hours, read-out: Compound X50
Procedure: as §3

DELBVR = assay: Cancer cell direct cytotoxicity assay, DELBVR; assay type: cell-based, human; conditions: 96 hours, read-out: Compound X50
Procedure: as §3

SU-DHL-4 = assay: Cancer cell direct cytotoxicity assay, SU-DHL-4; assay type: cell-based, human; conditions: 96 hours, read-out: Compound X50
Procedure: as §3

BxPC3 = assay: Cancer cell direct cytotoxicity assay, BxPC3; assay type: cell-based, human; conditions: 96 hours, read-out: Compound X50
Procedure: as §3

Ls174T = assay: Cancer cell direct cytotoxicity assay, Ls174T; assay type: cell-based, human; conditions: 96 hours, read-out: Compound X50
Procedure: as §3

A2058 = assay: Cancer cell direct cytotoxicity assay, A2058; assay type: cell-based, human; conditions: 96 hours, read-out: Compound X50
Procedure: as §3

786-O = assay: Cancer cell direct cytotoxicity assay, 786-O; assay type: cell-based, human; conditions: 96 hours, concentration required to reduce cell viability to 50%, read-out: Compound X50
Procedure: as §3

L540cy = assay: Cancer cell direct cytotoxicity assay, L540cy; assay type: cell-based, human; conditions: 96 hours, read-out: Compound X50
Procedure: as §3

DEL = assay: Cancer cell direct cytotoxicity assay, DEL; assay type: cell-based, human; conditions: 96 hours, read-out: Compound X50
Procedure: as §3

## CCn1nc(C)cc1C(=O)Nc1nc2cc(C(N)=O)cc(O)c2n1C/C=C/Cn1c(NC(=O)c2cc(C)nn2CC)nc2cc(C(N)=O)cc(OC)c21 [compound 1, (E)-1-(4-(5-carbamoyl-2-(1-ethyl-3-methyl-1H-pyrazole-5-carboxamido)-7-hydroxy-1H-benzo[d]imidazol-1-yl)but-2-en-1-yl)-2-(1-ethyl-3-methyl-1H-pyrazole-5-carboxamido)-7-methoxy-1H-benzo[d]imidazole-5-carboxamide]
CT26 cancer cells
  tumor growth: minimal tumor growth delay
Renca tumor-bearing mice; 3 h after treatment
  IFNγ in plasma: < 3.2 pg/mL
  IL1β in plasma: 0.7 pg/mL
  IL12p70 in plasma: 174 pg/mL
  IL-6 in plasma: 95.7 pg/mL
  IL-10 in plasma: 48.8 pg/mL
  IP10 in plasma: 703 pg/mL
  MCP-1 in plasma: 168 pg/mL
  MIP1α in plasma: 55.6 pg/mL
  MIP1β in plasma: 362 pg/mL
  RANTES in plasma: 10.6
  TNFa in plasma: 3.6
Renca tumor-bearing mice; 6 h after treatment
  IFNγ in plasma: 0.2 pg/mL
  IL1β in plasma: 1.5 pg/mL
  IL12p70 in plasma: < 3.2 pg/mL
  IL-6 in plasma: 6.8 pg/mL
  IL-10 in plasma: 0.8 pg/mL
  IP10 in plasma: 3390 pg/mL
  MCP-1 in plasma: 796 pg/mL
  MIP1α in plasma: 38.9 pg/mL
  MIP1β in plasma: 169 pg/mL
  RANTES in plasma: 18.4
  TNFa in plasma: 1.9
Renca tumor-bearing mice; 24 h after treatment
  IFNγ in plasma: < 3.2 pg/mL
  IL1β in plasma: 0.8 pg/mL
  IL12p70 in plasma: 140 pg/mL
  IL-6 in plasma: 13.5 pg/mL
  IL-10 in plasma: 34.6 pg/mL
  IP10 in plasma: 551 pg/mL
  MCP-1 in plasma: 333 pg/mL
  MIP1α in plasma: 69.9 pg/mL
  MIP1β in plasma: 70.7 pg/mL
  RANTES in plasma: 15.6
  TNFa in plasma: 2.0
Renca tumor-bearing mice; plasma
  systemic pro-inflammatory cytokine (IL-6 and TNF) production: induced very little pro-inflammatory cytokine (IL-6 and TNF) production
[1]; free drug, 24 h (48 h elsewhere in the source)
  relative potency of free drug, Lucia reporter: significantly more potent than (2′, 3′)-Rp,Rpc-diAMPS disodium (Compound B)
Renca cancer cells; Renca, q7dx3
  tumor growth / anti-tumor activity: some tumor growth delay was observed
Renca cancer cells; after the 1st and 2nd dose of the treatment
  average weight loss: < −5%
[2]
  cytokine production: induced cytokine production

## CCn1nc(C)cc1C(=O)Nc1nc2cc(C(N)=O)cc(OC)c2n1C/C=C/Cn1c(NC(=O)c2cc(C)nn2CC)nc2cc(C(N)=O)cc(OCCCN(C)C(=O)CCN3C(=O)CC(SC[C@H](N)C(=O)O)C3=O)c21 (stereo partly drawn) [compound 16]
MOLM-13
  IC50: 27 nM
Karpas299
  IC50: > 1000 nM
MDAMB231
  IC50: > 1000 nM
DELBVR
  IC50: 7 nM
SU-DHL-4
  IC50: > 1000 nM
BxPC3
  IC50: > 1000 nM
Ls174T
  IC50: > 1000 nM
A2058
  IC50: > 1000 nM
786-O
  IC50: > 1000 nM
[1]; small molecules, 24 h, >10,000 nM = minimal activity up to 10 μM, some values average of multiple experiments, read-out: EC50, Lucia reporter signal
  EC50: 52 nM
L540cy
  IC50: 29 nM
DEL
  IC50: 4 nM
